In PMC10977697 (PLOS ONE, 2024):
Where no end group is shown, it is not given here.

How the values were obtained:
CD16A = test: Spot phage ELISA, CD16A; type: binding, human; conditions: spot phage ELISA signal-to-noise on CD16A
EpCAM = test: Spot phage ELISA, EpCAM; type: binding, human; conditions: spot phage ELISA signal-to-noise on EpCAM

Sequence	S/N (CD16A)	S/N (EpCAM)
GPTQSPEGSCGGIGYSGPTVCASGTTCQVLNPYLSLCLPGAS (disulfide (positions not given here)) [CD16A CBD 8]	14.2	–
GCADTPWQGRCKQDSDCLAGCVCGPNGFCG (disulfide (positions not given here)) [CD16A EETI-II 21]	25.5	–
GPTQSPXGSCGGIGYSGPTVCASGTTCQVLNPYLSQCLPGAS (disulfide) [CD16A CBD 4]	16.8	–
GPTQSEGGSCGGIGYSGPTVCASGTTCQVLNPYMSACLPGAS (disulfide (positions not given here)) [CD16A CBD 7]	14.8	–
GCQWIQVNCKQDSDCLAGCVCWVSPYCG (disulfide (positions not given here)) [CD16A EETI-II 37]	5.8	–
GCVETYVDCKQDSDCLAGCVCEPVQYCG (disulfide (positions not given here)) [CD16A EETI-II 12]	18.5	–
GCWGFPFPMDCKQDSDCLAGCVCFLWDKCG (disulfide (positions not given here)) [CD16A EETI-II 23]	19.5	–
GCPWWWVVSCKQDSDCLAGCVCYLQENCG (disulfide (positions not given here)) [CD16A EETI-II 14]	17.8	–
GCIETIDHCKQDSDCLAGCVCQPMRRCG (disulfide (positions not given here)) [CD16A EETI-II 13]	20.1	–
GCQWIQQPCKQDSDCLAGCVCHESPWCG (disulfide (positions not given here)) [CD16A EETI-II 38]	17.4	–
GCDDILRACKQDSDCLAGCVCEEETLCG (disulfide (positions not given here)) [CD16A EETI-II 9]	17.8	–
GCPRILMRCKQDPDCLAGCVCDEEQLCG (disulfide (positions not given here)) [CD16A EETI-II 1]	25.4	–
GCDAKLQQCKQDSDCLAGCVCEEAVICG (disulfide (positions not given here)) [CD16A EETI-II 2]	22.9	–
GCQFMKTECKQDSDCLAGCVCYESPWCG (disulfide (positions not given here)) [CD16A EETI-II 22]	19.0	–
GCSGNAMNCKQDSDCLAGCVCDPWGKCD (disulfide (positions not given here)) [CD16A EETI-II 25]	19.7	–
GCGQAAVPCKQDSDCLAGCVCDPWGWCD (disulfide (positions not given here)) [CD16A EETI-II 29]	23.7	–
GCDSLLQRCKQDSDCLAGCVCTEEHLCG (disulfide (positions not given here)) [CD16A EETI-II 11]	16.8	–
GPTQSEGGSCGGIGYSGPTVCASGTTCQVLGPYISLCLPGAS (disulfide (positions not given here)) [CD16A CBD 2]	18.5	–
GPTQSEGGQCGGIGYSGPTVCASGTTCQVLGPSWSFCLPGAS (disulfide (positions not given here)) [CD16A CBD 11]	4.9	–
GCEWMAIPCKQDSDCLAGCVCWESPYCG (disulfide (positions not given here)) [CD16A EETI-II 40]	20.1	–
GCDWLEVECKQDSDCLAGCVCLISPYCG (disulfide (positions not given here)) [CD16A EETI-II 39]	16.3	–

Sequence	S/N (CD16A)	S/N (EpCAM)
GCRGIDWWPCKQDSDCLTGCVCGPNGFCG (disulfide (positions not given here)) [CD16A EETI-II 24]	11.1	–
GPTQSHYGQCGGFGYTGAIGCSGTTCQHVKYMRSQCLPGAS (disulfide (positions not given here)) [EpCAM CBD 7]	–	22.6
GPTQSHYGQCGGRGYPGAVVCSGTTCQYAVVPHSQCLPGAS (disulfide (positions not given here)) [EpCAM CBD 14]	–	19.4
GPTQSHYGQCGGKGYQGAMKCSGTTCQYIFFPTSQCLPGAS (disulfide (positions not given here)) [EpCAM CBD 64]	–	8.6
GCPRILMRCKQDSDCHPVCG (disulfide (positions not given here)) [EpCAM EET I-II 20]	–	19.5
GCPRILMRCKQDSDCQLVCLFPGLLVG (disulfide (positions not given here)) [EpCAM EET I-II 36]	–	14.3
GCPRILMRCKQDSELSSWLCLCCSGLVC (disulfide (positions not given here)) [EpCAM EET I-II 14]	–	20.8
GPTQSHYGQCGGHGYQGIMRCSGTTCQQVYMRSSQCLPGAS (disulfide (positions not given here)) [EpCAM CBD 34]	–	15.0
GCPRILMRCKQDSDCLAGCVCENGIMCG (disulfide (positions not given here)) [EpCAM EET I-II 25]	–	18.6
GPTQSHYGQCGGDGYHGAIHCSGTTCQYVMMNRSQCLPGAS (disulfide (positions not given here)) [EpCAM CBD 59]	–	8.9
GCMQWYIWCKQDSDCLAGCLYRSLPLD (disulfide (positions not given here)) [EpCAM EET I-II 9]	–	21.9
GCPRILMRCKQDSDCQWFCG (disulfide (positions not given here)) [EpCAM EET I-II 12]	–	20.9
GCPRILMRCKQDSGLSSWLCLCCSASVC (disulfide (positions not given here)) [EpCAM EET I-II 16]	–	20.6
GCPRILMRCKQDSDCQPFCG (disulfide (positions not given here)) [EpCAM EET I-II 6]	–	22.2
GPTQSHYGQCGGGGYHGIICSGTTCQSREVVRSQCLPGAS (disulfide (positions not given here)) [EpCAM CBD 84]	–	6.7
GPTQSHYGQCGGSGYYGAIMCSGTTCQYMRAMQSQCLPGAS (disulfide (positions not given here)) [EpCAM CBD 79]	–	7.4
GPTQSHYGQCGGKGYRGAIRCSGTTCQYIREFTSQCLPGAS (disulfide (positions not given here)) [EpCAM CBD 43]	–	11.4
GPTQSHYGQCGGAGYVGTIKCSGTTCQYVLKPQSQCLPGAS (disulfide (positions not given here)) [EpCAM CBD 54]	–	9.4
GPTQSHYGQCGGYGYQGMMMCSGTTCQYVRHKVSQCLPGAS (disulfide (positions not given here)) [EpCAM CBD 30]	–	15.6
GCPRILMRCKQDSDCLALCCNERNICG (disulfide (positions not given here)) [EpCAM EET I-II 18]	–	19.7
GPTQSHYGQCGGQGYYGAIMCSGTTCQWEPARKSQCLPGAS (disulfide (positions not given here)) [EpCAM CBD 31]	–	15.3

Sequence	S/N (CD16A)	S/N (EpCAM)
GPTQSHYGQCGGQGYIGAIMCSGTTCQMRSLPASQCLPGAS (disulfide (positions not given here)) [EpCAM CBD 20]	–	17.5
GPTQSHYGQCGGDGYVGAILCSGTTCQHVSVFPSQCLPGAS (disulfide (positions not given here)) [EpCAM CBD 56]	–	9.3
GCPRILMRCKQDSDCQAFCG (disulfide (positions not given here)) [EpCAM EET I-II 23]	–	18.7
GPTQSHYGQCGGKGYFGAIVCSGTTCQSTQKYASQCLPGAS (disulfide (positions not given here)) [EpCAM CBD 62]	–	8.8
GCSFPLIRCKQDSDCQLVVLWSKRFCG (disulfide (positions not given here)) [EpCAM EET I-II 2]	–	23.6
GPTQSHYGQCGGKGYPGAIVCSGTTCQLVQSWRSQCLPGAS (disulfide (positions not given here)) [EpCAM CBD 63]	–	8.7
GPTQSHYGQCGGTGYVGAHVCSGTTCQFVYRDFSQCLPGAS (disulfide (positions not given here)) [EpCAM CBD 48]	–	10.5
GPTQSHYGQCGGLGYTGAIVCSGTTCQWKQLMRSQCLPGAS (disulfide (positions not given here)) [EpCAM CBD 24]	–	16.9
GPTQSHYGQCGGWGYQGWAICSGTTCQAQLSHKSQCLPGAS (disulfide (positions not given here)) [EpCAM CBD 83]	–	6.8
GPTQSHYGQCGGTGYPGAMVCSGTTCQLFELXVSQCLPGAS (disulfide) [EpCAM CBD 74]	–	7.8
GPTQSHYGQCGGMGYKGIMCSGTTCQHAYIFRSQCLPGAS (disulfide (positions not given here)) [EpCAM CBD 49]	–	10.2
GPTQSHYGQCGGGGYYGAISCSGTTCQPVRLIRSQCLPGAS (disulfide (positions not given here)) [EpCAM CBD 37]	–	13.0
GPTQSHYGQCGGFGYHGYIVCSGTTCQSRQYDNSQCLPGAS (disulfide (positions not given here)) [EpCAM CBD 21]	–	17.2
GPTQSHYGQCGGPGYFGXVVCSGTTCQFAHIHRSQCLPGAS (disulfide) [EpCAM CBD 85]	–	6.6
GPTQSHYGQCGGTGYFGMMRCSGTTCQHVFLERSQCLPGAS (disulfide (positions not given here)) [EpCAM CBD 53]	–	9.5
GPTQSHYGQCGGQGYHGYIMCSGTTCQYYTPYTSQCLPGAS (disulfide (positions not given here)) [EpCAM CBD 68]	–	8.5
GPTQSHYGQCGGLGYVGAMQCSGTTCQYVVRNFSQCLPGAS (disulfide (positions not given here)) [EpCAM CBD 28]	–	16.2
GPTQSHYGQCGGFGYIGVVRCSGTTCQPHQYFRSQCLPGAS (disulfide (positions not given here)) [EpCAM CBD 32]	–	15.1
GCPRILMRCKQDSDCQAVCG (disulfide (positions not given here)) [EpCAM EET I-II 27]	–	18.1
GPTQSHYGQCGGKGYHGFIRCSGTTCQVVYPEKSQCLPGAS (disulfide (positions not given here)) [EpCAM CBD 58]	–	9.2
GPTQSHYGQCGGDGYTGMIRCSGTTCQFVAKKHSQCLPGAS (disulfide (positions not given here)) [EpCAM CBD 40]	–	11.8
